Laboratory results reported in patent US7745457B2, “Meridamycin analogues for the treatment of neurodegenerative disorders” (Wyeth LLC, priority 2006, dated 2010).

These compounds were tested on cortical neuron cultures (assay: Neurite outgrowth in dissociated cortical neuron cultures). Conditions: Cortical neurone; embryonic day 15 rat cortical neurons, 72 hours treatment, TUJ-1 staining, Cellomics ArrayScan ENO algorithm; read-out: EC50 in cortical neuron assays (neurite outgrowth).
Type: cell-based
Description: Dissociated cortical neuron cultures were prepared as previously described (Pong et al., 2001). Briefly, embryonic day 15 rat fetuses were collected and dissected in ice-cold PBS. Dissected cortices were pooled together and transferred to an enzymatic dissociation medium containing papain. After 30 minutes, the tissue was mechanically triturated with a fire-polished glass Pasteur pipette. Single-cell suspensions in complete media were seeded on poly-L-ornithine and laminin coated 96-well plates. 24 hours later, cultures were treated with various concentrations of compound for 72 hours. The cultures were then fixed and stained with an anti-tubulin primary antibody (TUJ-1) and a fluorescent-tagged secondary antibody. Neurite outgrowth was determined by using the Enhanced Neurite Outgrowth (ENO) algorithm with the Cellomics ArrayScan and expressed as average neurite length or total neurite length per cell.

| SMILES | EC50 [nM] |
| --- | --- |
| CC/C1=C\CC(/C(C)=C/C(C)C(C)O)OC(=O)C2CCCCN2C(=O)C(=O)C2(O)OC(CCC2C)CC2OC(C)(C)OC(CC3CC(OC(C)(C)O3)/C(C)=C/C(C)CC(C)C1O)C2C (stereo not drawn) [Example 1] | < 1000 |
| CC/C1=C\CC(/C(C)=C/C(C)C(C)OC(C)=O)OC(=O)C2CCCCN2C(=O)C(=O)C2(O)OC(CCC2C)CC(OC(C)=O)C(C)C(OC(C)=O)CC(OC(C)=O)CC(OC(C)=O)/C(C)=C/C(C)CC(C)C1OC(C)=O (stereo not drawn) [Example 2] | < 1000 |
| CC/C1=C\CC(/C(C)=C/C(C)C(C)OC(C)=O)OC(=O)C2CCCCN2C(=O)C(=O)C2(O)OC(CCC2C)CC(O)C(C)C(O)CC(OC(C)=O)CC(OC(C)=O)/C(C)=C/C(C)CC(C)C1OC(C)=O (stereo not drawn) [Example 3] | < 1000 |
| CC/C1=C\CC(/C(C)=C/C(C)C(C)O)OC(=O)C2CCCCN2C(=O)C(=O)C2(O)OC(CCC2C)CC(O)C(C)C(O)CC2CC(OC(C)(C)O2)/C(C)=C/C(C)CC(C)C1O (stereo not drawn) [Example 4] | < 1000 |
| CC/C1=C\CC(/C(C)=C/C(C)C(C)OC(C)=O)OC(=O)C2CCCCN2C(=O)C(=O)C2(O)OC(CCC2C)CC(O)C(C)C(OC(C)=O)CC(OC(C)=O)CC(OC(C)=O)/C(C)=C/C(C)CC(C)C1OC(C)=O (stereo not drawn) [Example 5] | < 1000 |
| CC/C1=C\CC(/C(C)=C/C(C)C(C)=O)OC(=O)C2CCCCN2C(=O)C(=O)C2(O)OC(CCC2C)CC2OC(C)(C)OC(CC3CC(OC(C)(C)O3)/C(C)=C/C(C)CC(C)C1=O)C2C (stereo not drawn) [Example 6] | < 1000 |
